The target in assay [1] is T1, Rhodopsin kinase GRK7 (Homo sapiens) (UniProt Q8WTQ7).
T1 sequence (whole entry): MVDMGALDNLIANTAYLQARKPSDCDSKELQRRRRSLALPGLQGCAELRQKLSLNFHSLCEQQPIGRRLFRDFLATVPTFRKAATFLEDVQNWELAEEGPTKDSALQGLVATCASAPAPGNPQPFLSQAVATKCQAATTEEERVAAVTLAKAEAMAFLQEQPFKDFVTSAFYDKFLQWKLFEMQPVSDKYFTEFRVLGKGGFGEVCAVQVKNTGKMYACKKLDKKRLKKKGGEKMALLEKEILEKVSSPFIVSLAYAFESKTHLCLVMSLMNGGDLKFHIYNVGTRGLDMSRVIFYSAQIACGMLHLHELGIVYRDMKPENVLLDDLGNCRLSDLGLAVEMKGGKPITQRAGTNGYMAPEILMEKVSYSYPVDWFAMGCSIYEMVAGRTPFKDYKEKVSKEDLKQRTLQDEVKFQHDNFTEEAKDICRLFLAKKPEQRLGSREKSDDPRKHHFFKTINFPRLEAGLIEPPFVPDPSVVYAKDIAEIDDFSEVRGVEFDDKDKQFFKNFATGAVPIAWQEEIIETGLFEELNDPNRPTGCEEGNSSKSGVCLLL
Put plainly: Selectivity interaction (Ambit KINOMEscan and KiNATiv profiling in Jurkat cells) EUB0000090b GRK7. The conditions noted are these: at 1 µM. It is filed as cell-based.

For assay [2], the target named is T2, Mitogen-activated protein kinase kinase kinase 3 (Homo sapiens) (UniProt Q99759).
T2 sequence (whole entry): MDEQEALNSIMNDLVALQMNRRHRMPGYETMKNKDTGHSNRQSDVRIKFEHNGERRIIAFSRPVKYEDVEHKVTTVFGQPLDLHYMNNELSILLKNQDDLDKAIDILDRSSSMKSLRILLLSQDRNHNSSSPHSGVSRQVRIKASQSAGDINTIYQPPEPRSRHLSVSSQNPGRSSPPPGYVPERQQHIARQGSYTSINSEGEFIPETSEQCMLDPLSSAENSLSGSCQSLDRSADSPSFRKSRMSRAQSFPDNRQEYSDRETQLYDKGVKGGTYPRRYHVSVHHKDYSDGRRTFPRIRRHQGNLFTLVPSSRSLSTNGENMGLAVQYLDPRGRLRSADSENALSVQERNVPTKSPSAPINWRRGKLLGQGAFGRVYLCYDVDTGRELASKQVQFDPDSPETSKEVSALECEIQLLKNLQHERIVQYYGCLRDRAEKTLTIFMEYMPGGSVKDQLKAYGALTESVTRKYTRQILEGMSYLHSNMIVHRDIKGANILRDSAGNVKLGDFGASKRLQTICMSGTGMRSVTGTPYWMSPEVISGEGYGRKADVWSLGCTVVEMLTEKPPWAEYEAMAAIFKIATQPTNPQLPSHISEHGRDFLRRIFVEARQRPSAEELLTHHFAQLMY
Put plainly: Selectivity interaction (KinomeScan (DiscoverX)) EUB0001619a MAP3K3. The conditions noted are these: at 1 µM.

Assay [3] deals with T3, Phosphatidylinositol 4,5-bisphosphate 3-kinase catalytic subunit delta isoform (Homo sapiens) (UniProt O00329).
T3 sequence (whole entry): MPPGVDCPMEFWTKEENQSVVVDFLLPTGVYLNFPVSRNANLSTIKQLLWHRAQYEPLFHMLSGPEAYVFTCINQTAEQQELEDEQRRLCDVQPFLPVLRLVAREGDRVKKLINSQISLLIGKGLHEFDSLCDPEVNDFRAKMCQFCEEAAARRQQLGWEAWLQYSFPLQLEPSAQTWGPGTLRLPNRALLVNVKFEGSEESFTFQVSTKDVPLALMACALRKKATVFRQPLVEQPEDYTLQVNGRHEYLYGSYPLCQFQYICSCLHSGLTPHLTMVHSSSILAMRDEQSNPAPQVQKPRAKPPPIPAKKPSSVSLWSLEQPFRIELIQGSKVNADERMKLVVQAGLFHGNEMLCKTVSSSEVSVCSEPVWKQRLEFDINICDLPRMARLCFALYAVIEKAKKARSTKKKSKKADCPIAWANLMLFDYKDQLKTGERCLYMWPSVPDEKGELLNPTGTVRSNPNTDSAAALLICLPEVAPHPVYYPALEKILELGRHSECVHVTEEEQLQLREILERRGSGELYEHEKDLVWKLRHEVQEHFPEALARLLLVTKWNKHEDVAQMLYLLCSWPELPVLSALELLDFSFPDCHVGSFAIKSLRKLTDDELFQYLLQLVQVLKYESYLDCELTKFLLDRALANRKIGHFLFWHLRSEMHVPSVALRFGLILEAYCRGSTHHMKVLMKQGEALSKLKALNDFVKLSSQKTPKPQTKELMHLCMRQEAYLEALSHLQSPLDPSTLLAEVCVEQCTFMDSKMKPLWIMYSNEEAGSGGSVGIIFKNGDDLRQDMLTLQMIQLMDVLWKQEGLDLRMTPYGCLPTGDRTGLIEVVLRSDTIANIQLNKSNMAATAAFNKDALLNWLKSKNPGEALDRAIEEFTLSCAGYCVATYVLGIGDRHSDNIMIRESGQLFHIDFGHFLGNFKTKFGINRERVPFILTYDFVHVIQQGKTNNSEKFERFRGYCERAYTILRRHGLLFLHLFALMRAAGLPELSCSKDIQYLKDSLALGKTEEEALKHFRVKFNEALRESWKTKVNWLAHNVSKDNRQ
Put plainly: Selectivity interaction (Kinase panel (Invitrogen)) EUB0000639a PIK3CD. Particulars: at 200 nM.

Assay [4] addresses T4, Serine/threonine-protein kinase Nek5 (Homo sapiens) (UniProt Q6P3R8).
T4 sequence (whole entry): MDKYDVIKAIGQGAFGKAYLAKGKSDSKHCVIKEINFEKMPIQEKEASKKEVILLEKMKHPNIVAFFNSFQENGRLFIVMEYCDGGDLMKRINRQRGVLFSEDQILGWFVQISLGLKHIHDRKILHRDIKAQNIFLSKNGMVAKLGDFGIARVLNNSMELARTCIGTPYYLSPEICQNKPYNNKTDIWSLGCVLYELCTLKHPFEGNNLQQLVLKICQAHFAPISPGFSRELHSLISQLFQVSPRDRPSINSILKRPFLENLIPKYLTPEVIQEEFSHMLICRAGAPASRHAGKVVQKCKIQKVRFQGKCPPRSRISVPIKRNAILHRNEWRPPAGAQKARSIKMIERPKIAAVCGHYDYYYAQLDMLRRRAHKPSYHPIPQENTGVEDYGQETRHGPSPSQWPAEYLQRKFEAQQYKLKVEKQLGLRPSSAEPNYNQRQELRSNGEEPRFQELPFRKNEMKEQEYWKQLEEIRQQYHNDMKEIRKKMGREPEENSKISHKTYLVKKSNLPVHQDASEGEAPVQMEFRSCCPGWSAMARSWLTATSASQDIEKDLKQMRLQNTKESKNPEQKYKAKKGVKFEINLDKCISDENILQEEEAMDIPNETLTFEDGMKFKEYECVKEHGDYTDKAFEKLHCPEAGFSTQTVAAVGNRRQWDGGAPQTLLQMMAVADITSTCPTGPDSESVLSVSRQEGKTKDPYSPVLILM
Kind of assay: Selectivity interaction (KinomeScan (DiscoverX)) EUB0000618a NEK5. The conditions noted are these: at 10 µM.

In turn, `CN(C)C/C=C/C(=O)Nc1ccc(C(=O)N2CCCC(Nc3ncc(Cl)c(-c4c[nH]c5ccccc45)n3)C2)cc1` (centres undefined) came in with a % of control in assay [1] of 70%.

`N#Cc1cccc(-c2c[nH]c3ncnc(N4CCOCC4)c23)c1`: the % of control in assay [2] stood at 8.2%.

`CC[C@@H]1[C@H](F)C(=O)N[C@@H]1COc1nccc2cc(C(N)=O)c(OC)cc12` [ZIMLOVISERTIB] registered a % of inhibition in assay [3] of 1.5%.

As for `O[C@H]1CC[C@H](Nc2ncc3nc(Nc4c(F)cc(F)cc4F)n([C@H]4CCOC4)c3n2)CC1`, the % of control in assay [4] came out at 100%.

(Values after ChEMBL document CHEMBL5465560, “Selectivity Literature for EUbOPEN Chemogenomic Library” (2024).)
